Laboratory results: ChEMBL document CHEMBL1125044, “1,2,4-Diazaphosphole nucleosides. Synthesis, structure, and antitumor activity of nucleosides with a lambda 3 phosphorus atom” (J Med Chem, 1990)
Active and inactive are the calls of the source. The calls are words filed in the database; no cut-off is given here.

How the values were obtained:
Mus musculus [1] = assay: Compound was tested against L1210 infected BDF1 mice at 480 mg/kg expressed as percent increase in life span; format: functional
Mus musculus [2] = species: Mus musculus; assay: Compound was tested against L1210 infected BDF1 mice expressed as weight change at 24 hour; format: functional
Mus musculus [3] = species: Mus musculus; assay: Compound was tested against L1210 infected BDF1 mice expressed as weight change at 72 hour; format: functional
[4] = Lethal dose in L1210-bearing female BDF1 mice; format: toxicity, organism-based; details: BDF1, mouse, in vivo
[5] = In vitro antiviral activity against number of DNA virus was reported; Inactive; format: functional
[6] = In vitro antiviral activity against number of RNA virus was reported; Inactive; format: functional

NC(=S)c1nn(C2O[C@H](CO)[C@@H](O)[C@H]2O)cp1 (stereo partly specified)
ILS at 480 mg/kg (Mus musculus [1]): 25% | Weight change (Mus musculus [2]): -1.67 g | Weight change (Mus musculus [3]): -0.67 g

NC(=O)c1nn(C2O[C@H](CO)[C@@H](O)[C@H]2O)cp1 (stereo partly specified)
LD50 [4]: 480 mg/kg | Activity [5]: inactive | Activity [6]: inactive
